Laboratory results from ChEMBL document CHEMBL1201862, “PubChem BioAssay data set” (2004).
Active and inactive are the calls of the source.

Columns and labels:
[1] = cells; format: functional, cell-based
[2] = cells; format: functional, cell-based; remark: listed apart in the source
[3] = target: T1, Fatty acid synthase (Homo sapiens, UniProt P49327); test: FAS thioesterase domain inhibitors, dose response, biochemical, endpoint fluorescence intensity, uHTS hits (AID 624327); format: functional;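 note: fluorescence from hydrolysis of an O-methyl fluorescein acyl ester substrate by the enzyme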
T1 sequence (P49327 whole entry, the tested form may be a part): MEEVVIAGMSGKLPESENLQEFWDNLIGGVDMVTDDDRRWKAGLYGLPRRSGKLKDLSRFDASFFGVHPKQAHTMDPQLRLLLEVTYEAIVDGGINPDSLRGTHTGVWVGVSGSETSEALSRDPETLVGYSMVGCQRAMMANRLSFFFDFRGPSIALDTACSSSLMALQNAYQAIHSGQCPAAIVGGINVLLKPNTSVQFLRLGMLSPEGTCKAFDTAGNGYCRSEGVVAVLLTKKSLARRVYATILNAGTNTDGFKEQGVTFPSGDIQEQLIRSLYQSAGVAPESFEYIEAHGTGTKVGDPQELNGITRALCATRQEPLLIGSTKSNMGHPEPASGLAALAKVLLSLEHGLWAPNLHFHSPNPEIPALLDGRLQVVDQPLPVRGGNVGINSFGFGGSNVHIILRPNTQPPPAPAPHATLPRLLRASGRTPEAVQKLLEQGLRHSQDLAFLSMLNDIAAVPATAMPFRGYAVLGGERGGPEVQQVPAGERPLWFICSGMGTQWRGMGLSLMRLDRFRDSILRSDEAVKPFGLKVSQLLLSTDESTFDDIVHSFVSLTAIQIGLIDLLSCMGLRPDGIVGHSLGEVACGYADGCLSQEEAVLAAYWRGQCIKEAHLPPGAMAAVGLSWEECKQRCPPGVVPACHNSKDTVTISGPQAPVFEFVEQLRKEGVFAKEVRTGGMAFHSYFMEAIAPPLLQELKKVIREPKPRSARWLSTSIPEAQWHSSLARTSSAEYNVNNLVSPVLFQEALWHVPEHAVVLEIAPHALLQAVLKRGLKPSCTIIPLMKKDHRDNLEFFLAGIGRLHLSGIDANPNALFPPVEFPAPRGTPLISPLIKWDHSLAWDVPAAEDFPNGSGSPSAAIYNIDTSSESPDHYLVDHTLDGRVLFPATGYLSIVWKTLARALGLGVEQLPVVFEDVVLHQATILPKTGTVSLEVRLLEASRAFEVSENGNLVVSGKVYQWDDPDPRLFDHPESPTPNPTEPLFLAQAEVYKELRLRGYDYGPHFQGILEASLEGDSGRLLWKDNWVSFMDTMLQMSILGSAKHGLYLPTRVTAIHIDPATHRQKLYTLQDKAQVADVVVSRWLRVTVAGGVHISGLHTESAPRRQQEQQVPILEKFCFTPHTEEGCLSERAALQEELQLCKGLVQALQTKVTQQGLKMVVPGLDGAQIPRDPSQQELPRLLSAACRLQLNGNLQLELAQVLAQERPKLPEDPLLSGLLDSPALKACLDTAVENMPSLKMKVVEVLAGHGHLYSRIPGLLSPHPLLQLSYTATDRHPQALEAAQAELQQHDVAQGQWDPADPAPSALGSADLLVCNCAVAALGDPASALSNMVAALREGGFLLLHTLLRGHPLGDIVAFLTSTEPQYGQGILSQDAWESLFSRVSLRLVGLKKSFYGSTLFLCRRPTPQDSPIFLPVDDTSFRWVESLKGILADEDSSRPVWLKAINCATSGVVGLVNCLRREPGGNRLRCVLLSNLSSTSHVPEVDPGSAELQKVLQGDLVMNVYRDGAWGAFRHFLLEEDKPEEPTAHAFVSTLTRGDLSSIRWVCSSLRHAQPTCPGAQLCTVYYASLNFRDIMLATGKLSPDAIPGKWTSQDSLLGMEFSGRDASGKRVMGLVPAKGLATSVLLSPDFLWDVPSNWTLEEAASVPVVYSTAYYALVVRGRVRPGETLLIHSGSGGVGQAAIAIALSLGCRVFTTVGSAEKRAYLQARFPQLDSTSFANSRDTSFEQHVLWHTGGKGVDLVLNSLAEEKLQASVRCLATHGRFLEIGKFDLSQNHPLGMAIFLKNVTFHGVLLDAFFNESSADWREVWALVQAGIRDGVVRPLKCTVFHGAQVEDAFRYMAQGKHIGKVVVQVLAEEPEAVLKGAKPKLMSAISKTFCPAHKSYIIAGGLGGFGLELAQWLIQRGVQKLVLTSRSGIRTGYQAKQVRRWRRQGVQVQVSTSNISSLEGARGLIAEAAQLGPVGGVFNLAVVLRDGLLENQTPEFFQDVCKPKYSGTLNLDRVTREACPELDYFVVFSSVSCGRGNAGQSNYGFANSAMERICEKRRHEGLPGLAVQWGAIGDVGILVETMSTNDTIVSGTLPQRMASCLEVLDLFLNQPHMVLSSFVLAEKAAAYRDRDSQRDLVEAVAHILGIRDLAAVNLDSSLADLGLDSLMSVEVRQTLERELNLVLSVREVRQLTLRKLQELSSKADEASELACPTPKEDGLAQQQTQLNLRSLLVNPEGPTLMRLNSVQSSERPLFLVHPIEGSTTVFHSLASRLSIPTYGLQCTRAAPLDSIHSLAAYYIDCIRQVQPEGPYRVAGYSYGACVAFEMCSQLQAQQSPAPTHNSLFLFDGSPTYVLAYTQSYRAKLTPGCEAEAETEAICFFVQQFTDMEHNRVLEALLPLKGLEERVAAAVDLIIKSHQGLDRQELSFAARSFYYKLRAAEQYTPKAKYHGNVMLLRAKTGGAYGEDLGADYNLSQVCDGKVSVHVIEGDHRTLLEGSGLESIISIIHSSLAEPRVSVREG

[4] = target: T1, Fatty acid synthase; test: FAS thioesterase domain inhibitors, dose response, biochemical, kinetic fluorescence intensity (AID 624326); format: functional;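 note: rate of fluorescence rise from hydrolysis of a fluorogenic O-methyl fluorescein ester substrate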
[5] = target: T2, Leucine aminopeptidase (Plasmodium falciparum 3D7, UniProt Q8IL11); test: P. falciparum M17LAP inhibitors, primary screen, biochemical, fluorogenic H-Leu-NHMec substrate, 1536-well (AID 1619); format: functional
T2 sequence (Q8IL11 whole entry): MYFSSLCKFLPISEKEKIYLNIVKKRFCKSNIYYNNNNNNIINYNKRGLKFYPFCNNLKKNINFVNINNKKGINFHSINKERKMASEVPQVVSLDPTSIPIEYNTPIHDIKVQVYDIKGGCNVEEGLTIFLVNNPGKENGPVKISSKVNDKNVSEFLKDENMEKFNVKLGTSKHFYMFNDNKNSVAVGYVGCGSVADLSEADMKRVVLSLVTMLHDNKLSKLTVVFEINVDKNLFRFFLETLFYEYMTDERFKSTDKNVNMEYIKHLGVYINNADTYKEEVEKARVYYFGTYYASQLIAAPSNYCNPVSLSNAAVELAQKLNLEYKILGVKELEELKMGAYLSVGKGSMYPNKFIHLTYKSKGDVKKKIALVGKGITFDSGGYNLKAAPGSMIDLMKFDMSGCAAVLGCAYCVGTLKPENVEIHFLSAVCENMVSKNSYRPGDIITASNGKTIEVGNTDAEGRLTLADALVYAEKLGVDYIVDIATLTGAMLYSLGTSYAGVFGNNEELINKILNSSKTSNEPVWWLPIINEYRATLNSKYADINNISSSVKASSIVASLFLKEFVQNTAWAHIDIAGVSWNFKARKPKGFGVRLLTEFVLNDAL

[6] = target: T3, Rac GTPase-activating protein 1 (Homo sapiens, UniProt Q9H0H5); test: MgcRacGAP GTPase-activating activity inhibitors, confirmation, biochemical, ADP Hunter fluorescence, primary and confirmatory (AID 624330); format: functional
T3 sequence (Q9H0H5 whole entry): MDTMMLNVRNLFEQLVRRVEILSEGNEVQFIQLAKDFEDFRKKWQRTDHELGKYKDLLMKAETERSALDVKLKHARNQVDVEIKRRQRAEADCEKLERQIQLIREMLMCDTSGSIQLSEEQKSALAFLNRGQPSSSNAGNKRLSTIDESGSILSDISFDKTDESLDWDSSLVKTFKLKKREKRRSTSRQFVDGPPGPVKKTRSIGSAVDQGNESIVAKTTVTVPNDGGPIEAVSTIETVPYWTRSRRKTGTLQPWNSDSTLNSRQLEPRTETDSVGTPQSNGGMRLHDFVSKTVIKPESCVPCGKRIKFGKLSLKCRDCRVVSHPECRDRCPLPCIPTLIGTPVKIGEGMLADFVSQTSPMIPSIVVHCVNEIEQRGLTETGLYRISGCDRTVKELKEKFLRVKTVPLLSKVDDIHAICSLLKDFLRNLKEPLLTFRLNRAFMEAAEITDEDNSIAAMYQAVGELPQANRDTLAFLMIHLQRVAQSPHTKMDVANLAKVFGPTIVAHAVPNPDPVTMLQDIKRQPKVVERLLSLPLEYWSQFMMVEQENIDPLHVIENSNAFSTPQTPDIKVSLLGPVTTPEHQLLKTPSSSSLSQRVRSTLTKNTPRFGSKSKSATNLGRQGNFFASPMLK

[7] = ZM109 Env clade C HIV-1 fusion inhibitors, dose response, HeLa effector, CEM target cells, luciferase, cherry-pick (AID 652058); format: functional, cell-based
[8] = off-target signal loss in HeLa-CEM21 co-culture – HeLa F-luc CTL cells, cherry-picked, counter-screen for HIV-1 Env fusion inhibitor project, dose response (AID 652040); format: functional, cell-based;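 note: potency for signal decrease marking cytotoxic or nonspecific inhibition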
[9] = inhibitors of clade B AD8 Env fusion, dose response, cell-based, cherry-pick (AID 652062); format: functional;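 note: luciferase signal from cell-cell fusion driven by HIV-1 clade B AD8 Env; potency is for inhibitors of fusion seen as a drop in luminescence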
[10] = inhibitors of SNCA 5'UTR-driven reporter translation, confirmation, H4 neuroglioma cells, luminescence (AID 1988); format: functional, cell-based
[11] = inhibitors of firefly luciferase expression or activity, dose response, H4 neuroglioma cells, luminescence (AID 1990); format: functional, cell-based
[12] = inhibitors of HIV Env-driven cell fusion, dose response, cherry-pick (AID 652057); format: functional, cell-based
[13] = target: T4, Calpain-2 catalytic subunit (Sus scrofa, UniProt P43367); test: pig calpain II inhibitor potency, dose response, biochemical, fluorogenic peptide substrate (AID 1420); format: functional
T4 sequence (P43367 whole entry): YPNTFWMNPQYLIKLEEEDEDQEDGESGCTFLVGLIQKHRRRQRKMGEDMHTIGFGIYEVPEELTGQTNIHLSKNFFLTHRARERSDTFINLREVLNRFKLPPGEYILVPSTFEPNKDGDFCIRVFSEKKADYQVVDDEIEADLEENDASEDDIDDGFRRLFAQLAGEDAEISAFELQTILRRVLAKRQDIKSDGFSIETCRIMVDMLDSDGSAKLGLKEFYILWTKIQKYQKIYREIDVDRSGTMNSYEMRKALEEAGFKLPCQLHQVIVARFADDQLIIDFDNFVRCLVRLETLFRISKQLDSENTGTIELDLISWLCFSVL

[14] = THP-1 cell cytotoxicity, dose response, cytotoxicity control for non-replicating M. tuberculosis project (AID 489025); format: functional

## Cc1cccc(N=C(S)N2CCC(N(C)CC3CCCO3)CC2)c1 (stereo unspecified)
[1]
  EC50: > 350 µM (not active)
[2]
  EC50: > 350 µM (not active)

## COc1ccc([N+](=O)[O-])cc1NC(=O)C1(c2ccccc2)CCOCC1
[3]
  IC50: 19.6 µM (active)
[4]
  IC50: 16.5 µM (active)

## Cc1onc(-c2c(Cl)cccc2Cl)c1C(=O)N=C(N)N1CCCC1
[1]
  EC50: > 350 µM (not active)
[2]
  EC50: > 350 µM (not active)

## CCC1(C)Cc2sc3c(=O)[nH]c(=S)[nH]c3c2CO1 (stereo unspecified)
[5]
  IC50: 29.3 µM (active)

## CCOc1ccc(Nc2nnc(S)s2)cc1
[5]
  IC50: < 1 µM (active)
[6]
  IC50: 54.8 µM (active)

## CN1CCN(Cc2nc3ccccc3c(=O)n2Cc2nc(-c3ccccc3F)cs2)CC1
[1]
  EC50: 45.4 µM (active)
[2]
  EC50: > 350 µM (not active)

## Nc1[nH]nc2nc(N3CCCC3)nc(-c3ccccc3)c12
[5]
  IC50: 33.7 µM (active)

## CC(NC(=O)C(C(=O)c1cccc([N+](=O)[O-])c1)n1cc(Cl)ccc1=O)c1ccccc1 (stereo unspecified)
[3]
  IC50: 8.63 µM (active)
[4]
  IC50: 7.89 µM (active)

## O=C(O)c1cnn2cc(-c3n[nH]cc3[N+](=O)[O-])cnc12
[5]
  IC50: 13.3 µM (active)

## COc1ccc(C(=O)C(C)N(C(=O)c2ccc(Cl)cc2Cl)N2C(=O)C3C4C=CC(C4)C3C2=O)cc1 (stereo unspecified)
[7]
  AC50: 2.82 µM (active)
[8]
  AC50: 4.93 µM (active)
[9]
  AC50: 13.1 µM (active)
[10]
  EC50: > 120 µM (not active)
[11]
  EC50: 16.7 µM (active)
[12]
  AC50: 2.94 µM (active)

## CC(C)=CC1C(C(=O)Nc2ccc(Br)cn2)C1(C)C (stereo unspecified)
[13]
  IC50: 6.34 µM (not active)
[14]
  CC50: > 40 µM (active)

## COc1ccc(-c2cc(=O)oc3c(C)c(OCc4nn[nH]n4)ccc23)cc1
[3]
  IC50: 9.18 µM (active)
[4]
  IC50: 5.32 µM (active)

## CC(=O)N1N=C(c2cccc([N+](=O)[O-])c2)OC1c1cccc(Br)c1 (stereo unspecified)
[3]
  IC50: 9.14 µM (active)
[4]
  IC50: 11.9 µM (active)

## CCN(CC)c1ccc(NC(=O)Cn2nnc(-c3cccc(OC)c3OC)n2)c(C)c1
[5]
  IC50: < 1 µM (active)
[1]
  EC50: > 350 µM (not active)
[2]
  EC50: > 350 µM (not active)

## CCCOc1ccc(N2C(=O)CC(SCCN)C2=O)cc1 (stereo unspecified)
[5]
  IC50: 12 µM (active)

## COC(=O)c1cc(C(=O)NCc2ccc3c(c2)OCO3)cc([N+](=O)[O-])c1
[3]
  IC50: 11.1 µM (active)
[4]
  IC50: 11.7 µM (active)

## CC[C@@]12C(=O)N(c3ccccc3)C(=O)N1[C@H](c1ccc(OC)cc1)[C@@H]1C(=O)N(C(C)(C)C)C(=O)[C@@H]12
[7]
  AC50: 1.67 µM (active)
[8]
  AC50: 2.68 µM (active)
[9]
  AC50: 3.89 µM (active)
[12]
  AC50: 1.22 µM (active)

## O=C(c1cc2ccccc2o1)N1CCN(Cc2ccc3c(c2)OCO3)CC1
[1]
  EC50: > 350 µM (not active)
[2]
  EC50: > 350 µM (not active)

## Cc1noc(NS(=O)(=O)c2ccc(NC(=O)Nc3ccc(Cl)c(Cl)c3)cc2)c1C
[5]
  IC50: 9.03 µM (active)

## COc1ccc(-c2nnn(CC(=O)N(Cc3cccs3)C(C)C(=O)NC3CCCC3)n2)cc1OC (stereo unspecified)
[7]
  AC50: 9.35 µM (active)
[8]
  AC50: 24.8 µM (active)
[9]
  AC50: 10.1 µM (active)
[12]
  AC50: 5.2 µM (active)

## CCn1cc([N+](=O)[O-])c(C(=O)N2N=C(c3ccccc3)CC2c2ccc([N+](=O)[O-])cc2)n1 (stereo unspecified)
[3]
  IC50: 15.6 µM (active)
[4]
  IC50: 13.2 µM (active)

## O=C1NCCN(Cc2cccc(Oc3ccccc3)c2)C1CC(=O)N1CCCCC1 (stereo unspecified)
[7]
  AC50: 10.9 µM (active)
[8]
  AC50: 11.1 µM (active)
[9]
  AC50: 8.77 µM (active)
[12]
  AC50: 3.76 µM (active)

## Cc1ccc(C(C(=O)NC2CCCCC2)N(C(=O)c2csnn2)C2CCCC2)o1 (stereo unspecified)
[7]
  AC50: 3.63 µM (active)
[8]
  AC50: 13.5 µM (active)
[9]
  AC50: 6.08 µM (active)
[12]
  AC50: 14.1 µM (active)

## O=C(Cn1ncc2c(=O)oc3ccccc3c21)N1CCC(N2CCCCC2)CC1
[8]
  AC50: 38.2 µM (active)
[9]
  AC50: 2.31 µM (active)

## CC1CCN(C(=O)COC(=O)c2cc([N+](=O)[O-])ccc2N2CCOCC2)CC1
[3]
  IC50: 3.58 µM (active)
[4]
  IC50: 5.23 µM (active)

## C[C@@]12CC(=O)NC1N(C(=O)c1cccc(C(F)(F)F)c1)C(c1ccccc1O)C2 (stereo partly specified)
[7]
  AC50: 7.54 µM (active)
[8]
  AC50: 7.18 µM (active)
[9]
  AC50: 26.7 µM (active)
[12]
  AC50: 3.74 µM (active)

## O=C(CN1C(=O)C2C3C=CC(C3)C2C1=O)NCC1COc2ccccc2O1 (stereo unspecified)
[5]
  IC50: 2.19 µM (active)

## C=CCNC(=O)/C(=C/c1cn(-c2ccccc2)nc1-c1cccc([N+](=O)[O-])c1)NC(=O)c1ccccc1
[1]
  EC50: > 350 µM (not active)
[2]
  EC50: > 350 µM (not active)

## Cc1cc(=O)oc2cc(OCC(=O)N3CCN(C(C)c4ccccc4)CC3)c(Cl)cc12 (stereo unspecified)
[3]
  IC50: 8.39 µM (active)
[4]
  IC50: 8.55 µM (active)

## CN(c1ccccc1)S(=O)(=O)c1cccc(NC(=O)CCNC(=O)c2ccc([N+](=O)[O-])cc2)c1
[3]
  IC50: 7.63 µM (active)
[4]
  IC50: 9.59 µM (active)

## CCOC(=O)[C@@H]1[C@H]2COc3cc(OC)ccc3[C@H]2N2C(=O)N(c3cccc(Cl)c3)C(=O)[C@@]12C
[3]
  IC50: 23.7 µM (inactive)
[4]
  IC50: 13.6 µM (active)

## COc1ccc(CN(C)C(=O)COC(=O)c2cc([N+](=O)[O-])ccc2N2CCCC2)c(OC)c1OC
[3]
  IC50: 5.42 µM (active)
[4]
  IC50: 6.71 µM (active)

## Cc1ccc(S(=O)(=O)c2nnn3c2nc(N2CCC(C(N)=O)CC2)c2ccccc23)cc1C
[3]
  IC50: 11.4 µM (active)
[4]
  IC50: 8.84 µM (active)

## CCc1nc2c(OCc3ccc(Cl)cc3)cccn2c1N(C=O)Cc1ccccc1
[3]
  IC50: 6.9 µM (active)
[4]
  IC50: 3.71 µM (active)

## CN1C2CCC1/C(=C/c1cccn1C)C(=O)/C2=C\c1cccn1C
[5]
  IC50: 51.9 µM (active)

## CCCc1nc2ccccc2c(=O)n1/N=C/c1ccccc1O
[1]
  EC50: > 350 µM (not active)
[2]
  EC50: > 350 µM (not active)

## COc1ccc(C/C(C)=N/NS(=O)(=O)c2ccc(Br)cc2)cc1
[1]
  EC50: > 350 µM (not active)
[2]
  EC50: > 350 µM (not active)

## C/C=C/C=N/NC(=O)CN(c1ccc(Br)cc1)S(=O)(=O)c1ccccc1
[3]
  IC50: 10.6 µM (active)
[4]
  IC50: 10.1 µM (active)

## COc1cccc(N/N=C(\C#N)S(=O)(=O)C(C)(C)C)c1
[5]
  IC50: 26.7 µM (active)

## CC1=NNC(=O)C1CCC(=O)N/N=C\c1cccc(Cl)c1 (stereo unspecified)
[5]
  IC50: 20.9 µM (active)
